# Assay results as given in patent US20070059684A1 (UNIVERSITY OF MEDICINE AND DENTISTRY OF NEW JERSEY, published 2007).
# “Also recorded” adds a separate entry of the source. Like-named read-outs stand apart in the source and are kept apart here.
# T1: Upf2p (Saccharomyces cerevisiae, UniProt P38798 1-1089, limits assumed)
# T1 construct: Tested in a two-hybrid system; also called product of the UPF2/IFS1 gene
# T1 sequence (looked up): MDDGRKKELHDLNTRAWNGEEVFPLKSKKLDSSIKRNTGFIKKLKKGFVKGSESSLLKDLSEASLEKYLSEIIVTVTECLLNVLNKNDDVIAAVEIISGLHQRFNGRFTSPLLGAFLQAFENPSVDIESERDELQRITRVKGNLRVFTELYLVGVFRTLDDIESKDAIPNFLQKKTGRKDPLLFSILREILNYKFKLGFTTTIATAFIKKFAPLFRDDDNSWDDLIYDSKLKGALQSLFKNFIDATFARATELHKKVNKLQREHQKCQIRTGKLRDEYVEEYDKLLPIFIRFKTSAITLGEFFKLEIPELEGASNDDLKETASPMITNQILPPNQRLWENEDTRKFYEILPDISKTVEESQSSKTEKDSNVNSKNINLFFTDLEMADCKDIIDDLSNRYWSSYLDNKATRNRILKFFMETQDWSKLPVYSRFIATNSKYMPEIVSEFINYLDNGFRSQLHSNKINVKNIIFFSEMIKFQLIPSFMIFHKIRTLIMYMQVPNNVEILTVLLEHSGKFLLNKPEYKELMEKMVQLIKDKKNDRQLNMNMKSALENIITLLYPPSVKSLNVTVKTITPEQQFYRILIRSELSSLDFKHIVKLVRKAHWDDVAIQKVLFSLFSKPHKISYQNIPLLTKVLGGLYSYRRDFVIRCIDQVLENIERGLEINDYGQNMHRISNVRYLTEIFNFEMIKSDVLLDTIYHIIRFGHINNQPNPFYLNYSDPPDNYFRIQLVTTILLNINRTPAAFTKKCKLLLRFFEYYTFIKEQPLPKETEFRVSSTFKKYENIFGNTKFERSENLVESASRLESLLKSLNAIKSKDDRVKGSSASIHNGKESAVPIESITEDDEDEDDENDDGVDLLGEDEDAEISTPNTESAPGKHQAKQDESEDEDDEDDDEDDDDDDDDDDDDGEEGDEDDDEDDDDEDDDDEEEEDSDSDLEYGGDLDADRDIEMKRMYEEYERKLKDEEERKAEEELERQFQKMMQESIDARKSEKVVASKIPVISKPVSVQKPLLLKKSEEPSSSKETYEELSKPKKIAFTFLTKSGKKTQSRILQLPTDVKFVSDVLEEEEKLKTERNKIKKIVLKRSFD
# B1: Upf3p (other, Saccharomyces cerevisiae, UniProt P48412 1-387, looked up)
# chain: MSNVAGELKNSEGKKKGRGNRYHNKNRGKSKNETVDPKKNENKVNNATNATHNNSKGRRNNKKRNREYYNYKRKARLGKSTENEGFKLVIRLLPPNLTADEFFAILRDNNNDDGDKQDIQGKLKYSDWCFFEGHYSSKVFKNSTYSRCNFLFDNLSDLEKCANFIKTCKFIDNKDNITIPDMKLSPYVKKFTQTSKKDAALVGTIEEDEIFKTFMNSMKQLNENDEYSFQDFSVLKSLEKEFSKSIELENKIAERTERVLTELVGTGDKVKNKNKKKKNKNAKKKFKEEEASAKIPKKKRNRGKKKRENREKSTISKTKNSNVVIIEEAGKEVLKQRKKKMLLQEKLKISNSSQPQSSSAQTQPSFQPKENLFVPRVKILHRDDTKK
# notes: Tested in a two-hybrid system; also called product of the UPF3 gene
# B2: Upf1p (other, Saccharomyces cerevisiae, UniProt P30771 1-971, looked up)
# chain: MVGSGSHTPYDISNSPSDVNVQPATQLNSTLVEDDDVDNQLFEEAQVTETGFRSPSASDNSCAYCGIDSAKCVIKCNSCKKWFCNTKNGTSSSHIVNHLVLSHHNVVSLHPDSDLGDTVLECYNCGRKNVFLLGFVSAKSEAVVVLLCRIPCAQTKNANWDTDQWQPLIEDRQLLSWVAEQPTEEEKLKARLITPSQISKLEAKWRSNKDATINDIDAPEEQEAIPPLLLRYQDAYEYQRSYGPLIKLEADYDKQLKESQALEHISVSWSLALNNRHLASFTLSTFESNELKVAIGDEMILWYSGMQHPDWEGRGYIVRLPNSFQDTFTLELKPSKTPPPTHLTTGFTAEFIWKGTSYDRMQDALKKFAIDKKSISGYLYYKILGHQVVDISFDVPLPKEFSIPNFAQLNSSQSNAVSHVLQRPLSLIQGPPGTGKTVTSATIVYHLSKIHKDRILVCAPSNVAVDHLAAKLRDLGLKVVRLTAKSREDVESSVSNLALHNLVGRGAKGELKNLLKLKDEVGELSASDTKRFVKLVRKTEAEILNKADVVCCTCVGAGDKRLDTKFRTVLIDESTQASEPECLIPIVKGAKQVILVGDHQQLGPVILERKAADAGLKQSLFERLISLGHVPIRLEVQYRMNPYLSEFPSNMFYEGSLQNGVTIEQRTVPNSKFPWPIRGIPMMFWANYGREEISANGTSFLNRIEAMNCERIITKLFRDGVKPEQIGVITPYEGQRAYILQYMQMNGSLDKDLYIKVEVASVDAFQGREKDYIILSCVRANEQQAIGFLRDPRRLNVGLTRAKYGLVILGNPRSLARNTLWNHLLIHFREKGCLVEGTLDNLQLCTVQLVRPQPRKTERPMNAQFNVESEMGDFPKFQDFDAQSMVSFSGQIGDFGNAFVDNTELSSYINNEYWNFENFKSAFSQKQNRNEIDDRNLYQEEASHLNSNFARELQREEQKHELSKDFSNLGI
# notes: Tested in a two-hybrid system; also called Upf1 protein; product of the UPF1/IFS2/MOF4 gene
# Experiments:
# translation = type: cell-based, Saccharomyces cerevisiae; conditions: JD88 cells, indicated drug concentrations, 30° C. 5 hrs
# [1] = tested on: L-A, M1 and L-BC dsRNA viruses; type: cell-based, Saccharomyces cerevisiae; conditions: 72 hrs at 3.8 μM anisomycin; not confirmed by northern blot
# From the text: FIG. 12. (A) A single non-killer (K^−) colony from each drug concentration in the 72 hr data set was picked at random and total nucleic acids (TNA) were extracted [Dinman and Wickner, Virology 66:3669 (1992)]. Approximately equal amounts of TNA were separated through a 1% non-denaturing TAE-agarose gel and stained with ethidium bromide. The 4.6 kb L-A and L-BC, and the 1.8 kb M1 dsRNA bands are indicated. (B) RNA was denatured in the gel shown in (A), transferred to nitrocellulose and hybridized with [^32P]CTP labeled L-A and M1 (+) strand RNA probes as described in [Dinman and Wickner, Genetics 136:75 (1994)].
# To determine whether loss of the M1 satellite virus was responsible for loss of the killer phenotype, a non-killer (K^−) colony from each drug concentration in the 72 hr data set was picked at random and total nucleic acids (TNA) were extracted [Park et al., Virology 216:451 (1996)]. Approximately equal amourits of TNA were separated through a 1% non-denaturing TAE-agarose gel and stained with ethidium bromide (FIG. 12A). As expected, the 1.8 kb M1 dsRNA band is not present in the K^− (drug treated) samples. Further, L-A appears to have also been cured by these drugs. […]
# Recently the cDNA sequence of L-BC (also known as La), a ubiquitous minor dsRNA virus of yeast has been determined [Park et al., supra]. […]
# HIV = type: cell-based, human
# human host cells = type: cell-based
# Description: Antiviral activities of these antibiotics were also tested against HIV.
# [2] = tested on: killer phenotype (M1 satellite virus); conditions: 3.8 μM anisomycin, after 48 or 72 hours, JD88 cells
# Description: JD88 cells were cultured in rich medium containing the indicated concentrations of either anisomycin (A) or sparsomycin (B). After 24, 48, 72, 96, or 120 hrs., aliquots of cells were removed, washed twice with sterile water, streaked onto rich medium, and grown to single colonies at 30° C. These were then replica plated onto indicator plates, and scored for their killer phenotypes. Loss of the killer phenotype was measured by dividing the number of non-killer (K^−) colonies by the total number of colonies. Each data set corresponds to >100 total colonies.
# After 24, 48, 72, 96, or 120 hrs., aliquots of cells were streaked for single colonies onto rich medium, which were then replica plated onto indicator to score their killer phenotypes.
# nonsense mutations = conditions: 5 ug/ml, UPF1+ and UPF1− strains
# Description: Effects of drugs at a concentration of 5 μg/ml on nonsense supression in UPF+ and UPF− strains.
# UPF1+ and UPF1− strains were treated with 5 ug/ml sparsomycin, anisomycin, and paromomycin, and tested for nonsense suppression.
# tcm1/mak8 mutants = conditions: cited from earlier work
# [3] = tested on: Saccharomyces cerevisiae strains (wildtype, mof4-1); type: cell-based; conditions: 30° C. 4 days
# Upf2p = target: T1, Upf2p; test: two-hybrid system
molecule,measurement,setting,value
COc1ccc(C[C@H]2NC[C@H](O)[C@H]2OC(C)=O)cc1 [anisomycin],overall translation (β-gal activities from pTI25) as percentage of the no drug controls,translation,≥ 80%
same,L-BC dsRNA band,[1],appears to missing
same,titers of HIV,HIV,decrease titers of HIV
same,HIV viral titers as % of the no drug controls,"HIV; anisomycin at concentrations 1500-fold lower than MIC, 4 days",approximately 30%
same,antiviral concentration relative to the MIC (fold lower),HIV; concentration giving approximately 30% HIV titer,1500
same,minimum inhibitory concentration (MIC),human host cells,about 1.5 ug/ml
same,loss of the killer phenotype (non-killer colonies / total colony forming units),[2],approximately 53%
same,nonsense suppression,nonsense mutations,able to suppress nonsense mutations
same,effectiveness in tcm1/mak8 mutants,tcm1/mak8 mutants,resistant; also recorded: ineffective
NC[C@@H]1O[C@H](O[C@H]2[C@@H](O)[C@H](O[C@@H]3[C@@H](O)[C@H](N)C[C@H](N)[C@H]3O[C@H]3O[C@H](CO)[C@@H](O)[C@H](O)[C@H]3N)O[C@@H]2CO)[C@H](N)[C@@H](O)[C@@H]1O [paromomycin],PAROMOMYCIN SENSITIVITY (diameter of the zone of growth inhibition),"[3]; strain Wildtype (MOF+UPF+), disc 1.0 mg paromomycin, media lacking leucine",0.7 cm
same,PAROMOMYCIN SENSITIVITY (diameter of the zone of growth inhibition),"[3]; strain mof4-1 (UPF1::URA3) + pmof4XAB, disc 1.0 mg, media lacking uracil and leucine",1.6 cm
same,PAROMOMYCIN SENSITIVITY (diameter of the zone of growth inhibition),"[3]; strain mof4-1 (UPF1::URA3) + pmof4XAE, disc 1.0 mg, media lacking uracil and leucine",2.3 cm
same,PAROMOMYCIN SENSITIVITY (diameter of the zone of growth inhibition),"[3]; strain mof4-1 (UPF1::URA3) + vector, disc 1.0 mg, media lacking uracil and leucine",1.7 cm
same,PAROMOMYCIN SENSITIVITY (diameter of the zone of growth inhibition),"[3]; strain mof4-1 + pYCpUPF1, disc 1.0 mg, media lacking uracil and leucine",1.6 cm
same,PAROMOMYCIN SENSITIVITY (diameter of the zone of growth inhibition),"[3]; strain mof4-1 + vector, disc 1.0 mg, media lacking uracil and leucine",2.4 cm
same,PAROMOMYCIN SENSITIVITY (diameter of the zone of growth inhibition),"[3]; strain mof4-1, disc 1.0 mg paromomycin, media lacking leucine",2.0 cm
same,nonsense suppression,nonsense mutations,able to suppress nonsense mutations
B1,binding result,Upf2p,binds
B2,binding result,Upf2p,binds
